Experimental data reported in patent publication US20250179000A1 (Sanford Burnham Prebys Medical Discovery Institute, priority 2021, published 2025).

Columns and labels:
Type in all cases: cell-based
Rat mGlu3 = molecular target: T1, Rat mGlu3 (Rattus norvegicus, UniProt P31422); assay: mGlu receptor in vitro assay (thallium flux through GIRK channels / calcium assay), rat mGlu3; settings: PAM potency with EC20 glutamate
T1 construct: expressed in transfected cells; host or cells: HEK-293 co-expressing GIRK channels
T1 sequence (P31422 23-879): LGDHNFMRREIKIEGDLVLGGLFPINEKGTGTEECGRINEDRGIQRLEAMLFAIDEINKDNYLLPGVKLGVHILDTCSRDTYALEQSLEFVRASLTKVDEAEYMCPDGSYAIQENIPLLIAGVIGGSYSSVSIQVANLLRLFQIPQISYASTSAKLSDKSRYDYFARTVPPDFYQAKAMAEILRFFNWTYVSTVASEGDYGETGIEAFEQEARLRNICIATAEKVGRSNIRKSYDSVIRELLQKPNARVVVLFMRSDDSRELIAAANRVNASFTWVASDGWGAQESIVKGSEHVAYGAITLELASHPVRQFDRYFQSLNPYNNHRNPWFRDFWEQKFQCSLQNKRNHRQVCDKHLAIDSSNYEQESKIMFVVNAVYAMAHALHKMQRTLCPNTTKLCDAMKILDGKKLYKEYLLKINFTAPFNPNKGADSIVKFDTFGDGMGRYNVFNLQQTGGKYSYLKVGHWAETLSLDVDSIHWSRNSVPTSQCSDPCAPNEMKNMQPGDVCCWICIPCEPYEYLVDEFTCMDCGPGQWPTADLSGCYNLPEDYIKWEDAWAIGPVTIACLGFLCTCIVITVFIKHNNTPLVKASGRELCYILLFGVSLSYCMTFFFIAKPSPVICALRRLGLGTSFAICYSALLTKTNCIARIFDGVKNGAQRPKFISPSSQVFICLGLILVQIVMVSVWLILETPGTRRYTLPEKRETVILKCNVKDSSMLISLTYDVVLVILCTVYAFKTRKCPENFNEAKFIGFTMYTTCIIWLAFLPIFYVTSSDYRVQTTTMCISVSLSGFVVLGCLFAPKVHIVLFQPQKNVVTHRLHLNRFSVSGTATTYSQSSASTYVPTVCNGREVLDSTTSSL
Summary of the method: (§1)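 HEK-293 cells co-expressing rat mGlu2 or mGlu3 and GIRK, dye-loaded with FluoZin2-AM, compound added about 2.5 min before thallium buffer with EC20 glutamate; potency from the 5-15 s fluorescence slope, 10-point 4-parameter fit. Calcium assay at mGlu3 used TREx293 mGlu3 Gα15 cells induced with tetracycline 20 ng/mL for 20 h.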

Human mGlu3 = Human mGlu3 (Homo sapiens, UniProt Q14832); assay: mGlu receptor in vitro assay, human mGlu3
Sequence of Human mGlu3 (Q14832 23-879): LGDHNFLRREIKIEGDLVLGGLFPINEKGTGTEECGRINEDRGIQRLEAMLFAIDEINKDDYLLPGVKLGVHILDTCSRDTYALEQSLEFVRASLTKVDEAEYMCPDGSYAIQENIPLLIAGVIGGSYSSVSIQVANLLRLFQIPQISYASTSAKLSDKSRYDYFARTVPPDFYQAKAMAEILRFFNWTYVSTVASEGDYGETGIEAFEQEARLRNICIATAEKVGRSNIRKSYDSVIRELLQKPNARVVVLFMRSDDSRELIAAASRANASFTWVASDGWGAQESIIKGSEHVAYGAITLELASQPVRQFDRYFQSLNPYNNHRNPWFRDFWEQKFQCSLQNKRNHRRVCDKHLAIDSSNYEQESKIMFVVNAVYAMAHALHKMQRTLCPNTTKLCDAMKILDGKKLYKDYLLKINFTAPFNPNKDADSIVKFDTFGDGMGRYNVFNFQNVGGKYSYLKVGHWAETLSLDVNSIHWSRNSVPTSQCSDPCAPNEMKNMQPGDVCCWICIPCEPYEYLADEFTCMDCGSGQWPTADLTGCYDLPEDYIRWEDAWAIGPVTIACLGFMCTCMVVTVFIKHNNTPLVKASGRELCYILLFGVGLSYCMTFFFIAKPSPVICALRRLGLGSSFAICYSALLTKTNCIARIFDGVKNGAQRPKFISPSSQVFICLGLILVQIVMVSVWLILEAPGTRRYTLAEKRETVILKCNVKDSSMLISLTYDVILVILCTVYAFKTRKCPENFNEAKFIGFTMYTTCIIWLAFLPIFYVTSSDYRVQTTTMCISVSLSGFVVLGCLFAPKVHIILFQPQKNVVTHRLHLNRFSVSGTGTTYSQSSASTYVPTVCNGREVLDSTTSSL
Experimental: Human Embryonic Kidney (HEK-293) cell lines co-expressing rat mGlu receptors 2, 3, 4, 6, 7 or 8 and G protein-coupled inwardly-rectifying potassium (GIRK) channels were grown in Growth Media containing 45% DMEM, 45% F-12, 10% FBS, 20 mM HEPES, 2 mM L-glutamine, antibiotic/antimycotic, non-essential amino acids, 700 μg/mL G418, and 0.6 μg/ml puromycin at 37° C. in the presence of 5% CO2. […] All cell culture reagents were purchased from Invitrogen Corp. (Carlsbad, CA) unless otherwise noted. Calcium assays were used to assess activity of compounds at mGlu1 and mGlu5, as previously described in Engers et al (J. Med. Chem. 2009, 52, 4115-4118). Calcium assays at mGlu3 were performed as described for mGlu5 with the exception that TREx293 mGlu3 Gα15 cells were treated with tetracycline at 20 ng/mL for 20 h prior to assay.
Briefly, cells were plated into 384-well, black-walled, clear-bottomed poly-D-lysine-coated plates at a density of 15,000 cells/20 μL/well in DMEM containing 10% dialyzed FBS, 20 mM HEPES, and 100 units/mL penicillin/streptomycin (assay media). Plated cells were incubated overnight at 37° C. in the presence of 5% CO2. The following day, the medium was exchanged from the cells to assay buffer [Hanks' balanced salt solution (Invitrogen) containing 20 mM HEPES, pH 7.3] using an ELX405 microplate washer (BioTek), leaving 20 μL/well, followed by the addition of 20 μL/well FluoZin2-AM (330 nM final concentration) indicator dye (Invitrogen; prepared as a stock in DMSO and mixed in a 1:1 ratio with Pluronic acid F-127) in assay buffer. Cells were incubated for 1 h at room temperature, and the dye exchanged to assay buffer using an ELX405, leaving 20 μL/well. Test compounds were diluted to 2 times their final desired concentration in assay buffer (0.3% DMSO final concentration). Agonists were diluted in thallium buffer [125 mM sodium bicarbonate (added fresh the morning of the experiment), 1 mM magnesium sulfate, 1.8 mM calcium sulfate, 5 mM glucose, 12 mM thallium sulfate, and 10 mM HEPES, pH 7.3] at 5 times the final concentration to be assayed. Cell plates and compound plates were loaded onto a kinetic imaging plate reader (FDSS 6000 or 7000; Hamamatsu Corporation, Bridgewater, NJ). Appropriate baseline readings were taken (10 images at 1 Hz; excitation, 470±20 nm; emission, 540±30 nm) and test compounds were added in a 20 μL volume and incubated for approximately 2.5 min before the addition of 10 μL of thallium buffer with or without agonist. After the addition of agonist, data were collected for approximately an additional 2.5 min. Data were analyzed using Excel (Microsoft Corp, Redmond, WA). The slope of the fluorescence increase beginning 5 s after thallium/agonist addition and ending 15 s after thallium/agonist addition was calculated, corrected to vehicle and maximal agonist control slope values, and plotted in using either XLfit (ID Business Solutions Ltd) or Prism software (GraphPad Software, San Diego, CA) to generate concentration-response curves. Potencies were calculated from fits using a four-point parameter logistic equation. For concentration-response curve experiments, compounds were serially diluted 1:3 into 10-point concentration response curves and were transferred to daughter plates using an Echo acoustic plate reformatter (Labcyte, Sunnyvale, CA). Test compounds were applied and followed by EC20 concentrations of glutamate.

Rat mGlu2 = molecular target: T2, Rat mGlu2 (Rattus norvegicus, UniProt P31421); assay: mGlu receptor in vitro assay, thallium flux through GIRK channels, rat mGlu2; settings: PAM potency with EC20 glutamate
T2 construct: expressed in transfected cells; host or cells: HEK-293 co-expressing GIRK channels
T2 sequence (P31421 19-872): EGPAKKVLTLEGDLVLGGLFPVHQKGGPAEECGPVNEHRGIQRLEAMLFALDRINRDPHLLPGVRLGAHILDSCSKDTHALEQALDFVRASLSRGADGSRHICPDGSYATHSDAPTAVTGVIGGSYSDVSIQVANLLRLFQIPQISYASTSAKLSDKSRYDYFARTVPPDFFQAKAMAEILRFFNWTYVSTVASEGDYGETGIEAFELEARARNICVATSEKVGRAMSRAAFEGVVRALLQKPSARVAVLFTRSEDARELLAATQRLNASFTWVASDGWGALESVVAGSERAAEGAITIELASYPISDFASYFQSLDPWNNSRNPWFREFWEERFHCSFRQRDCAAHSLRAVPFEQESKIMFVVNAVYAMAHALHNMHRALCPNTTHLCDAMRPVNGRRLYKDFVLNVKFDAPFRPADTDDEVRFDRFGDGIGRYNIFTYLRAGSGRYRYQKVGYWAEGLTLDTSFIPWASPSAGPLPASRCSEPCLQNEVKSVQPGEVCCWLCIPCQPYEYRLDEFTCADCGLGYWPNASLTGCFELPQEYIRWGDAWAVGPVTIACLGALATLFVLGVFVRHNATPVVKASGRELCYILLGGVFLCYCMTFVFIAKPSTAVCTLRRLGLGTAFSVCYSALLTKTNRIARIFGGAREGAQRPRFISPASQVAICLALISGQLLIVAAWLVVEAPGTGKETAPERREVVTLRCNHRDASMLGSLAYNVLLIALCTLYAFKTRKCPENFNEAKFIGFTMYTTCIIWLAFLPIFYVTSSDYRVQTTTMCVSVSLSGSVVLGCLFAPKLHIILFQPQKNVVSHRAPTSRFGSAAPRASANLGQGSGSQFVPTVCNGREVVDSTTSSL
Summary of the method: as §1

Human mGlu2 = Human mGlu2 (Homo sapiens, UniProt Q14416); assay: mGlu receptor in vitro assay, human mGlu2
Sequence of Human mGlu2 (Q14416 19-872): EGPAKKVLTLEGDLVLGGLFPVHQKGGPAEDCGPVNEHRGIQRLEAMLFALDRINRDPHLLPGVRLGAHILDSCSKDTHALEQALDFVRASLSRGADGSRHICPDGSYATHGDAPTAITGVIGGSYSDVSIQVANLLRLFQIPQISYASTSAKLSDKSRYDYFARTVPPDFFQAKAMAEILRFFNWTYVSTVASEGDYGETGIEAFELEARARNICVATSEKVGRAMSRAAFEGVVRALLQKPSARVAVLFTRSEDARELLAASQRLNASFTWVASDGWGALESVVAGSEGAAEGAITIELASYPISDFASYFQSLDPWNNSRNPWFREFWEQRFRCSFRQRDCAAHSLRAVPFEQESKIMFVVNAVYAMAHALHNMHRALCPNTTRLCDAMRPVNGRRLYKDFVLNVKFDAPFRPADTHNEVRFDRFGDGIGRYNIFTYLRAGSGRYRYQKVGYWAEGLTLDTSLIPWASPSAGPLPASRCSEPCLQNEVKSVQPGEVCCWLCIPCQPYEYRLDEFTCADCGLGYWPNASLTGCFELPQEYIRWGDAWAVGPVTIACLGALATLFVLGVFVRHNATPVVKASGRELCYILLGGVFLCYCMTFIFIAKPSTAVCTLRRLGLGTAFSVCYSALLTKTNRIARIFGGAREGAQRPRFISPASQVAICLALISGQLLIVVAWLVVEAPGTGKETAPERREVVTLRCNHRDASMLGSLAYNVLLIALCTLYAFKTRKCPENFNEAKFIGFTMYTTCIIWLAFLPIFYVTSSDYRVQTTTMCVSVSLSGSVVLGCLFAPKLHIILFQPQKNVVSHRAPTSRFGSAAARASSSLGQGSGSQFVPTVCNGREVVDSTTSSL

EC50 (Rat mGlu3) [µM] | EC50 (Human mGlu3) [µM] | EC50 (Rat mGlu2) [µM] | EC50 (Human mGlu2) [µM] | SMILES
0.091 | 0.079 | 0.456 | 0.144 | COc1ccc(C(=O)O)cc1C#CCCCOc1ccc(C(=O)CC(C)(C)C)c(O)c1C [Example 2, 3-(5-(4-(3,3-Dimethylbutanoyl)-3-hydroxy-2-methylphenoxy)pent-1-yn-1-yl)-4-methoxybenzoic acid]
0.047 | 0.061 | 0.067 | 0.056 | COc1ccc(C(=O)O)cc1OC/C=C/COc1ccc(C(=O)CC(C)(C)C)c(O)c1C [Example 4, (E)-3-((4-(4-(3,3-Dimethylbutanoyl)-3-hydroxy-2-methylphenoxy)but-2-en-1-yl)oxy)-4-methoxybenzoic acid]
> 10 | > 10 | 0.027 | 0.026 | CCCC(=O)c1ccc(OCCOCCOc2ccc(C(=O)O)cc2OC)c(C)c1O [Example 5, 4-(2-(2-(4-Butyryl-3-hydroxy-2-methylphenoxy)ethoxy)ethoxy)-3-methoxybenzoic acid]
> 30 | > 10 | 0.158 | 0.116 | CCCC(=O)c1ccc(OCCOCCOc2cccc(C(=O)O)c2C)c(C)c1O [Example 7, 3-(2-(2-(4-Butyryl-3-hydroxy-2-methylphenoxy)ethoxy)ethoxy)-2-methylbenzoic acid]
0.489 | 0.534 | 0.019 | 0.01 | CCCC(=O)c1ccc(OC/C=C/COc2cccc(C(=O)O)c2C)c(C)c1O [Example 8, (E)-3-((4-(4-Butyryl-3-hydroxy-2-methylphenoxy)but-2-en-1-yl)oxy)-2-methylbenzoic acid]
> 10 | > 10 | 0.073 | 0.05 | CCCC(=O)c1ccc(OCCOCCNc2cccc(C(=O)O)c2)c(C)c1O [Example 9, 3-({2-[2-(4-Butanoyl-3-hydroxy-2-methylphenoxy)ethoxy]ethyl}amino)benzoic acid]
0.039 | 0.016 | 0.092 | 0.015 | COc1ccc(C(=O)O)cc1OCC#CCOc1ccc(C(=O)CC(C)(C)C)c(O)c1C [Example 10, 3-{4-[4-(3,3-Dimethylbutanoyl)-3-hydroxy-2-methylphenoxy]but-2-ynyloxy}-4-methoxybenzoic acid]
0.315 | 0.126 | 0.035 | 0.007 | COc1ccc(C(=O)O)cc1OCCCCCOc1ccc(C(=O)CC(C)(C)C)c(O)c1C [Example 11, 3-{5-[4-(3,3-Dimethylbutanoyl)-3-hydroxy-2-methylphenoxy]pentyloxy}-4-methoxybenzoic acid]
0.07 | 0.015 | 0.023 | 0.005 | COc1ccc(C(=O)O)cc1OCCSCCOc1ccc(C(=O)CC(C)(C)C)c(O)c1C [Example 12, 3-(2-{2-[4-(3,3-Dimethylbutanoyl)-3-hydroxy-2-methylphenoxy]ethylthio}ethoxy)-4-methoxybenzoic acid]
> 10 | > 10 | 0.114 | 0.052 | CCCC(=O)c1ccc(OCCCCCOc2cccc(C(=O)O)c2C)c(C)c1O [Example 13]
2.3 | > 30 | 0.016 | 0.009 | CCCC(=O)c1ccc(OCCCCCOc2ccc(C(=O)O)cc2OC)c(C)c1O [Example 14, 4-[5-(4-Butanoyl-3-hydroxy-2-methylphenoxy)pentyloxy]-3-methoxybenzoic acid]
> 10 | > 30 | 0.056 | 0.028 | CCCC(=O)c1ccc(OCCSCCOc2cccc(C(=O)O)c2C)c(C)c1O [Example 16, 3-{2-[2-(4-Butanoyl-3-hydroxy-2-methylphenoxy)ethylthio]ethoxy}-2-methylbenzoic acid]
1.52 | 0.768 | 0.355 | 0.153 | Cc1c(OCCCCCOc2ccc(C(=O)CC(C)(C)C)c(O)c2C)cccc1C(=O)O [Example 17, 3-{5-[4-(3,3-Dimethylbutanoyl)-3-hydroxy-2-methylphenoxy]pentyloxy}-2-methylbenzoic acid]
– | > 30 | – | > 30 | COc1c(C(=O)O)cccc1-c1cnc(COc2ccc3c(c2C)OC(C)(C)CC3=O)cn1 [compound 147, 2-Methoxy-3-(5-(((2,2,8-trimethyl-4-oxochroman-7-yl)oxy)methyl)pyrazin-2-yl)benzoic acid]
– | > 30 | – | > 10 | Cc1c(OCc2cnc(-c3cncc(C(=O)O)c3)cn2)ccc(C(=O)CC(C)(C)C)c1O [compound 148, 5-(5-((4-(3,3-Dimethylbutanoyl)-3-hydroxy-2-methylphenoxy)methyl)pyrazin-2-yl)nicotinic acid]
– | > 30 | – | > 10 | COc1ccc(C(=O)O)c(-c2cnc(COc3ccc(C#CCO)c(C)c3C)cn2)c1 [compound 150]
– | > 30 | – | > 30 | COc1ccc(C(=O)O)c(-c2cnc(COc3ccc(C#CCOCC(O)CO)c(C)c3C)cn2)c1 (centres unmarked) [compound 151]
– | 0.074 | – | 0.13 | COc1c(C(=O)O)cccc1-c1ccc(COc2ccc(C(=O)CC(C)(C)C)c(O)c2C)nc1 [compound 152, 3-(6-((4-(3,3-Dimethylbutanoyl)-3-hydroxy-2-methylphenoxy)methyl)pyridin-3-yl)-2-methoxybenzoic acid]
– | 0.133 | – | 0.069 | COc1c(C(=O)O)cccc1-c1ccc(COc2ccc(C(=O)CC(C)(C)C)c(O)c2C)cn1 [compound 153, 3-(5-((4-(3,3-Dimethylbutanoyl)-3-hydroxy-2-methylphenoxy)methyl)pyridin-2-yl)-2-methoxybenzoic acid]
– | 0.184 | – | 0.281 | COc1c(C(=O)O)cccc1-c1ccc(COc2ccc(C(=O)CC(C)(C)C)c(O)c2C)nn1 [compound 154, 3-(6-((4-(3,3-Dimethylbutanoyl)-3-hydroxy-2-methylphenoxy)methyl)pyridazin-3-yl)-2-methoxybenzoic acid]
– | 0.117 | – | 0.078 | COc1ccc(C(=O)O)cc1-c1noc(COc2ccc(C(=O)CC(C)(C)C)c(O)c2C)n1 [compound 156, 3-(5-((4-(3,3-Dimethylbutanoyl)-3-hydroxy-2-methylphenoxy)methyl)-1,2,4-oxadiazol-3-yl)-4-methoxybenzoic acid]
– | 0.148 | – | 0.048 | Cc1c(C(=O)O)cccc1-c1noc(COc2ccc(C(=O)CC(C)(C)C)c(O)c2C)n1 [compound 157, 3-(5-((4-(3,3-Dimethylbutanoyl)-3-hydroxy-2-methylphenoxy)methyl)-1,2,4-oxadiazol-3-yl)-2-methylbenzoic acid]
– | 0.104 | – | 0.053 | COc1c(C(=O)O)cccc1-c1noc(COc2ccc(C(=O)CC(C)(C)C)c(O)c2C)n1 [compound 158, 3-(5-((4-(3,3-Dimethylbutanoyl)-3-hydroxy-2-methylphenoxy)methyl)-1,2,4-oxadiazol-3-yl)-2-methoxybenzoic acid]
– | 0.085 | – | 0.044 | COc1c(C(=O)O)cccc1-c1cnc(COc2ccc(C(=O)CC(C)(C)C)c(O)c2C)nc1 [compound 159, 3-(2-((4-(3,3-Dimethylbutanoyl)-3-hydroxy-2-methylphenoxy)methyl)pyrimidin-5-yl)-2-methoxybenzoic acid]
